Measurements from patent US6107313A, “Dopamine receptor antagonists” (CombiChem, Inc., priority 1998, dated 2000).

Assays:
[1] = molecular target: T1, Dopamine, D2s (Human Recombinant) (Homo sapiens, UniProt P14416); experiment: dopamine D2 receptor binding assay, [3H]spiperone, human recombinant (A9L cells); settings: 1 h, N = 2, read-out: % Specific Binding; for activity at 10 µM: concentration 1.0E-5, average; for activity at 1 µM: concentration 1.0E-6, average; for activity at 0.1 µM: concentration 1.0E-7, average; for activity at 0.01 µM: concentration 1.0E-8, average; for activity at 0.001 µM: concentration 1.0E-9, average; for activity at 3 µM: concentration 3.0E-6, average; for activity at 0.3 µM: concentration 3.0E-7, average; for activity at 0.03 µM: concentration 3.0E-8, average; for activity at 0.003 µM: concentration 3.0E-9, average; for activity at 0.0003 µM: concentration 3.0E-10, average
T1 construct: expressed in transfected cells; host or cells: A9L cells (membranes)
T1 sequence (P14416 1-414 isoform P14416-2): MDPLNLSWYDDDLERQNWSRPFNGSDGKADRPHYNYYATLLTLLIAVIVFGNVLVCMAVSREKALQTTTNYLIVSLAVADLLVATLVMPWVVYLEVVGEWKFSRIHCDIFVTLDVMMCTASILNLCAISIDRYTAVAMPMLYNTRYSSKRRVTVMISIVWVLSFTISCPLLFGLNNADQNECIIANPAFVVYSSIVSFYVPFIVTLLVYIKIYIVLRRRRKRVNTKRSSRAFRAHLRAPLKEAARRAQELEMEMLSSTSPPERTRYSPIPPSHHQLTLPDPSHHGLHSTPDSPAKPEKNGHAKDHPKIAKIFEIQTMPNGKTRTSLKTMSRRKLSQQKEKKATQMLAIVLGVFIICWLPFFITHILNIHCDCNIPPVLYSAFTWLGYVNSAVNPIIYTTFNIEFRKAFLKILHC
Experimental: (§1) Following incubation, the membranes were rapidly filtered under vacuum through GF/B glass fiber filters (Packard). The filters were then washed several times with an ice-cold buffer using a Packard cell harvester.
(§2) Bound radioactivity was measured with a scintillation counter (Topcount, Packard) using a liquid scintillation cocktail (Microscint 0, Packard).
(§3) The compounds were tested in each assay at ten concentrations in duplicate to obtain competition curves.
(§4) In each experiment, the respective reference compound was simultaneously tested at eight concentrations in duplicate to obtain competition curves in order to validate this experiment.
(§5) The specific radioligand binding to the receptors is defined as the difference between total binding and nonspecific binding determined in the presence of an excess of unlabelled ligand (see section 2.1).
(§6) Results are expressed as a percent of control specific binding obtained in the presence of the test compounds.
(§7) These parameters were obtained by Hill equation curve fitting. The inhibition constants (Ki) were calculated from the Cheng Prusoff equation (Ki =IC50 /(1+L/KD), where L=concentration of radioligand in the assay, and KD=affinity of radioligand for the receptor).
(§8) Reactions were carried out in 50 mM TRIS-HCl (pH 7.4) containing 120 mM NaCl, 5 mM KCl, 5 mM MgCl2, 1mM EDTA for 60 minutes at 25 ° C. The reaction was terminated by rapid vacuum filtration onto glass fiber filters. Radioactivity trapped onto the filters was determined and compared to control values in order to ascertain any interactions of test compound(s) with the cloned dopamine D2 short binding site.

[2] = molecular target: T2, Dopamine, D4.4 (Human Recombinant) (Homo sapiens, UniProt P21917); experiment: dopamine D4.4 receptor binding assay, [3H]spiperone, human recombinant (CHO cells); settings: 1 h, N = 2, read-out: % Specific Binding; for activity at 10 µM: concentration 1.0E-5, average; for activity at 1 µM: concentration 1.0E-6, average; for activity at 0.1 µM: concentration 1.0E-7, average; for activity at 0.01 µM: concentration 1.0E-8, average; for activity at 0.001 µM: concentration 1.0E-9, average; for activity at 3 µM: concentration 3.0E-6, average; for activity at 0.3 µM: concentration 3.0E-7, average; for activity at 0.03 µM: concentration 3.0E-8, average; for activity at 0.003 µM: concentration 3.0E-9, average; for activity at 0.0003 µM: concentration 3.0E-10, average
T2 construct: expressed in transfected cells; host or cells: CHO cells (membranes)
T2 sequence (P21917 1-419): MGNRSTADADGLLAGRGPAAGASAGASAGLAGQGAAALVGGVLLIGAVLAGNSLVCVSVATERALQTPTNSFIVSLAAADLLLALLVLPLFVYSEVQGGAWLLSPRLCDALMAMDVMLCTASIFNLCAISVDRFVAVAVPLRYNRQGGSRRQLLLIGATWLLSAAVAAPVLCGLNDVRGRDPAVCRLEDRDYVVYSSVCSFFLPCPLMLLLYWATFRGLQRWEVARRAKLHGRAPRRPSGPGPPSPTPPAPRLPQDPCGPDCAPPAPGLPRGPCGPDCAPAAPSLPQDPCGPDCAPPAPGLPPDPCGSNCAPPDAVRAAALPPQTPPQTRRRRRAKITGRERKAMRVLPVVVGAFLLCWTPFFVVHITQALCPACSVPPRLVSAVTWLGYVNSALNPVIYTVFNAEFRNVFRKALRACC
Experimental: [The source words this procedure for another target and reports this target under the same test.] as §1, §2, §3, §4, §5, §6, §7, §8

| activity at 10 µM [1] [%] | activity at 1 µM [1] [%] | activity at 0.1 µM [1] [%] | activity at 0.01 µM [1] [%] | activity at 0.001 µM [1] [%] | activity at 3 µM [1] [%] | activity at 0.3 µM [1] [%] | activity at 0.03 µM [1] [%] | activity at 0.003 µM [1] [%] | activity at 0.0003 µM [1] [%] | activity at 10 µM [2] [%] | activity at 1 µM [2] [%] | activity at 0.1 µM [2] [%] | activity at 0.01 µM [2] [%] | activity at 0.001 µM [2] [%] | activity at 3 µM [2] [%] | activity at 0.3 µM [2] [%] | activity at 0.03 µM [2] [%] | activity at 0.003 µM [2] [%] | activity at 0.0003 µM [2] [%] | SMILES |
| --- | --- | --- | --- | --- | --- | --- | --- | --- | --- | --- | --- | --- | --- | --- | --- | --- | --- | --- | --- | --- |
| 24.6 | 91.3 | 112 | 103 | 104 | 61.9 | 116 | 104 | 97.3 | 116 | -3.8 | 0.44 | 22.8 | 53.6 | 76 | -0.19 | 4.28 | 29.7 | 73.1 | 82.3 | Clc1ccc(CN2CCC(c3nc(-c4cccs4)no3)CC2)cc1 [Compound 5b, 4-[3-(2-thienyl)-1,2,4-oxadiazol-5-yl]-N-(4-chlorobenzyl) piperidine] |
| 116 | 102 | 84.7 | 89.7 | 93.4 | 99.4 | 101 | 107 | 90.8 | 89.9 | 3.57 | 46.6 | 76.8 | 81 | 80.2 | 16.4 | 80.4 | 76.3 | 84.4 | 90.9 | Cc1ccc(-c2noc(C3CCN(Cc4ccc(Cl)c(Cl)c4)CC3)n2)cc1 [Compound 5a, 4-(3-p-tolyl-1,2,4-oxadiazol-5-yl)-N-(3,4-dichlorobenzyl) piperidine] |
| 39.5 | 106 | 105 | 100 | 104 | 113 | 117 | 99.8 | 105 | 85.2 | 2.15 | 6.58 | 47.5 | 92.1 | 102 | 12.2 | 22.9 | 77.1 | 96.4 | 101 | COc1ccc(CN2CCC(c3nc(-c4ccccc4C)no3)CC2)cc1 [Compound 5d, 4-(3-o-tolyl-1,2,4-oxadiazol-5-yl)-N-(4-methoxybenzyl) piperidine] |
| 33 | 101 | 87.7 | 88.3 | 94.8 | 102 | 94.6 | 84.9 | 108 | 98.5 | -7.32 | 1.74 | 29.2 | 81.9 | 107 | 4.6 | 4.79 | 60 | 95.2 | 109 | Clc1cccc(CN2CCC(c3nc(-c4cccs4)no3)CC2)c1 [Compound 5c, 4-[3-(2-thienyl)-1,2,4-oxadiazol-5-yl]-N-(3-chlorobenzyl) piperidine] |
